Values joined by “and” are separate entries in the source; they are usually repeats but may differ in a detail not shown here. Equal entries are not always repeated.

The target in experiment [1] is T1, JAK1 (Homo sapiens, UniProt P23458).
T1 construct: Recombinant human JAK1 (catalytic domain, amino acids 866-1154; catalog number PV4774) was purchased from Invitrogen; purchased Invitrogen PV4774
In words: JAK1 Ulight-JAK1 peptide assay. It is filed as biochemical. As to the method: Recombinant human JAK1 (catalytic domain, amino acids 866-1154; catalog number PV4774) was purchased from Invitrogen. 1 ng of JAK1 was incubated with 20 nM Ulight-JAK1(tyr1023) peptide (Perkin Elmer catalog number TRF0121) in kinase reaction buffer (25 mM MOPS pH6.8, 0.01% Brij-35, 5 mM MgCl2, 2 mM DTT, 7 μM ATP) with or without 4 μL containing test compound or vehicle (DMSO, 1% final concentration), in a total volume of 20 μL, in a white 384 Opti plate (Perkin Elmer, catalog number 6007290). […] Readout is performed using the Envision with excitation at 320 nm and measuring emission at 615 nm (Perkin Elmer). Kinase activity was calculated by subtracting relative fluorescence units (RFU) obtained in the presence of a positive control inhibitor (10 μM staurosporine) from RFU obtained in the presence of vehicle. The ability of a test compound to inhibit this activity was determined as:
Percentage inhibition=((RFU determined for sample with test compound present−RFU determined for sample with positive control inhibitor) divided by (RFU determined in the presence of vehicle−RFU determined for sample with positive control inhibitor))*100.
Dose dilution series were prepared for the compounds enabling the testing of dose-response effects in the JAK1 assay and the calculation of the IC50 for the compound. […] The data are expressed as the average IC50 from the assays ±standard error of the mean.

In experiment [2] the target is T2, TYK2 (Homo sapiens, UniProt P29597).
T2 construct: purchased Carna Biosciences 09CBS-0983D
T2 sequence (P29597 whole entry): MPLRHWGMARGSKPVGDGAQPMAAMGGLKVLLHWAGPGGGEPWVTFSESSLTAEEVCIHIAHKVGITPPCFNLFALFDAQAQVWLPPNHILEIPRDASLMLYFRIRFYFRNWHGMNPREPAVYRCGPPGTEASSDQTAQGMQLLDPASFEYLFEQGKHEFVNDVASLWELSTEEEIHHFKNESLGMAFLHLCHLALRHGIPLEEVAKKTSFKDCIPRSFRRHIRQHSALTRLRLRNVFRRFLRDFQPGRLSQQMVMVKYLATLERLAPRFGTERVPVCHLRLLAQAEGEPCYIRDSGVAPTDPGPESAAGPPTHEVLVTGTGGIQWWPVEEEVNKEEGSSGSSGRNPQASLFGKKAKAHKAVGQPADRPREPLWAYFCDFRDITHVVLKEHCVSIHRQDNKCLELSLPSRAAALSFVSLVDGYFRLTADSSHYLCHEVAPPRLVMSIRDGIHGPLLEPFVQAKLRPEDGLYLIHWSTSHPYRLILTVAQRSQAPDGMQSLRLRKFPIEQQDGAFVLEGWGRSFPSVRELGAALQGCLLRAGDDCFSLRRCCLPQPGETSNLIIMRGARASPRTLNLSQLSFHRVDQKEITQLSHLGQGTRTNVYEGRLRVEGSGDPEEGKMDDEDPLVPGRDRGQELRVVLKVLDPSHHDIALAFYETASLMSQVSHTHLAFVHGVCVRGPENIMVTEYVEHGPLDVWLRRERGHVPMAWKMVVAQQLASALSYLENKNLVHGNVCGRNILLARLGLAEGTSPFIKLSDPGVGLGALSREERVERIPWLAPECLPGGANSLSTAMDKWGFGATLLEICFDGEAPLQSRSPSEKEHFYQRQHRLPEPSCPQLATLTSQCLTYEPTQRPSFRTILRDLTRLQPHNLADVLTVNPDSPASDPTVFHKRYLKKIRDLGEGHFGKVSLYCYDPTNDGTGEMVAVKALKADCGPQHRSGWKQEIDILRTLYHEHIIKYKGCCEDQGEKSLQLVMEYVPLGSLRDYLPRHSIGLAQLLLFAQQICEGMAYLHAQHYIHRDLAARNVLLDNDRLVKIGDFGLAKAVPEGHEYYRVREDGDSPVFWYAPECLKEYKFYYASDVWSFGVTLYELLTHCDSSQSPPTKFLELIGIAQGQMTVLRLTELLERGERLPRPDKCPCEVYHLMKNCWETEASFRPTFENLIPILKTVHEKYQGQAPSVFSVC
In words: TYK2 Ki determination assay (kinase tracer binding). Particulars: kinase tracer 236 binding; read-out: Ki against TYK2. The protocol:
TYK2 (Carna Biosciences, 09CBS-0983D) was used at a final concentration of 5 nM. The binding experiment was performed in 50 mM Hepes pH 7.5, 0.01% Brij-35, 10 mM MgCl2, 1 mM EGTA using 50 nM kinase tracer 236 (Invitrogen, PV5592) and 2 nM Eu-anti-GST (Invitrogen, PV5594) with varying compound concentrations. Detection of tracer was performed according to the manufacturers' procedure.

T1 sequence (P23458 866-1154): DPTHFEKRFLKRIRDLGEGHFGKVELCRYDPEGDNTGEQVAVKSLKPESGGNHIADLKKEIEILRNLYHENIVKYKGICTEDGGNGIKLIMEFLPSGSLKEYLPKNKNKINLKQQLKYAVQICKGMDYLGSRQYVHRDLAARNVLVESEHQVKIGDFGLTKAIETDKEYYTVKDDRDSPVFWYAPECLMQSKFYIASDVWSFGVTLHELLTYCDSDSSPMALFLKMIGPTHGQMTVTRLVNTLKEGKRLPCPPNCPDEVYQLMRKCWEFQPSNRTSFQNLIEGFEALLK

One may read the IC50 as the concentration that gives 50% inhibition. As usually defined, the Ki is a dissociation constant, usually derived from enzyme kinetics or from competition with a known ligand. In the case of `CCc1cc(C2=CCN(C(=O)CC#N)CC2)ccc1N(C)c1cc2c(cn1)ncn2C` [Compound 1], in experiment [1], the “selectivity for JAK1 vs the other JAK family members (JAK2, JAK3, and TYK2)” value is listed as “at least 9 fold”. The IC50 in experiment [1] (Ulight-JAK1(tyr1023) peptide, 7 μM ATP, individual determinations, read-out: IC50 against JAK1) is 1.37 nM and 1.47 nM and 1.6 nM and 3.08 nM and 1.13 nM and 1.45 nM (2×) and 1.92 nM and 2.34 nM and 2.42 nM and 1.42 nM and 4.09 nM and 4.14 nM and 3.63 nM and 3.46 nM and 2.31 nM and 0.815 nM and 6.84 nM and 6.14 nM and 0.756 nM. Further, the Ki in experiment [2] is 70.7 nM and 108 nM.

Values taken from patent US20130217722A1, “NOVEL COMPOUND USEFUL FOR THE TREATMENT OF DEGENERATIVE AND INFLAMMATORY DISEASES” (priority 2012, published 2013).
